Results on 3 compounds are retold here after patent publication US20260174860A1, “HYBRID COMPOUNDS OF SCLAREOL AND DOXORUBICIN, THEIR SYNTHESIS AND APPLICATION” (INSTITUTE FOR BIOLOGICAL RESEARCH "SINISA STANKOVIC" - …, priority 2023, published 2026).

Data set [1] concerns U87 human glioblastoma cell line. The data set can be described thus: MTT test of cell viability, 72 h treatment. Conditions: for IC50: MTT, 72 h; for Selectivity Index: ratio IC50 MRC-5 (4,000 cells per well) / IC50 U87. Type of data set: cell-based. On the procedure: (§1) The MTT test was used to evaluate the effect of the compounds on cell viability. The test relies on the reduction of tetrazolium salt (MTT) to formazan, which is catalyzed by the mitochondrial enzyme succinate dehydrogenase. The activity of succinate dehydrogenase, which is indicative of mitochondrial respiration, is taken as an indirect measure of the metabolic activity of the cell, and thus its viability. The MTT-formazan produced is a purple-colored product, whose absorbance is measured at a wavelength of 570 nm. • a) To determine the inhibition of cell growth by SC, different cell lines were exposed to increasing concentrations of SC (5, 10, 25, 50, and 100 μM). The cells were seeded in 96-well microtiter plates at a density of 2,000 cells per well for NCI-H460, NCI-H460/R, DLD1 and DLD1-TxR, and 4,000 cells per well for MRC-5, U87, U87-TxR, and U251 in 100 μL of the appropriate medium. Control cells that received no treatment were also seeded at the same time. After 24 h for adaptation, the cells were treated with various concentrations of SC. After 72 h of treatment, 0.2 mg/ml MTT was added to each well in the appropriate cell culture medium. After 4 h of incubation at 37° C. with 5% CO2, the medium was removed, and 100 μL of DMSO were added to each well, to dissolve the formazan. The absorbance of the samples was measured at 570 nm using a Multiskan Sky Microplate spectrophotometer (ThermoFisher Scientific, USA). The results were analyzed using GraphPad Prism 8.0.2. software, and the IC50 values were determined by non-linear regression. • b) To test the interaction between SC and DOX in terms of cytotoxicity in different cell lines, cells were seeded in 96-well microtiter plates at a density of 2,000 cells per well for NCI-H460, NCI-H460/R, DLD1 and DLD1-TxR, and 4,000 cells per well for MRC-5, U87, U87-TxR, and U251 in 100 μl of the appropriate medium. SC (10 and 20 μM) was combined with increasing concentrations of DOX (20, 50, 100, 200, and 500 nM). The cells were treated with the simultaneous combinations for 72 h. After this period, 0.2 mg/ml MTT was added to each well, followed by 4 hours of incubation at 37° C. with 5% CO2. The medium was then removed, and DMSO was added to each well to dissolve the formazan.
(§2) The analysis was carried out using GraphPad Prism software version 8.0.2 to determine the nature of the interaction, namely synergistic, antagonistic, or additive, between compounds. This was done using the computer software CalcuSyn, which is based on the combination index method. The method takes into account the concentration of compounds, the individual effect of each compound, as well as the effect of two compounds in combination. The values of the combination indices (CI) describe the nature of the interaction: Cl<0.9 indicates synergism, Cl>1.1 indicates antagonism, and Cl=0.9-1.1 indicates an additive effect. • c) To compare the resistance and selectivity profiles among SC, DOX, CON1, and CON2, human glioblastoma cell lines U87, U87-TxR, and MRC-5 were seeded at a density of 4,000 cells per well in 100 μL of the appropriate medium. In contrast, NCI-H460, NCI-H460/R, and MRC-5 were seeded at a density of 2,000 cells per well in 100 μL of the proper medium. The effect of SC derivatives LIG1 and LIG2 was also examined. The range of concentrations differed among the cell lines and the compounds. For LIG1 and LIG2, the range of concentrations for all cell lines was 50, 100, 200, 300, and 400 μM, while the same range was used for the MRC-5 in the case of SC, CON1, and CON2. DOX concentrations ranged 0.1, 0.25, 0.5, 1, and 2.5 μM for U87 and NCI-H460, and 0.25, 0.5, 1, 2.5, and 5 μM for U87-TxR, NCI-H460/R, and MRC-5. […] concentrations used for SC, CON1, and CON2 treatments varied in the range 1, 2.5, 5, 10, 25, 50, and 100 μM. The treatment lasted 72 h. After the treatment period, 0.2 mg/ml MTT in the appropriate cell culture medium was added to each well. […]

Data set [2] concerns NCI-H460 human non-small cell lung carcinoma cell line. The data set can be described thus: MTT test of cell viability, 72 h treatment. Type of data set: cell-based. Conditions: for IC50: MTT, 72 h; for Selectivity Index: ratio IC50 MRC-5 (2,000 cells per well) / IC50 NCI-H460. On the procedure:
as §1, §2
Background: Tetrazolium dyes change colour on reduction, which living cells bring about.

The test system of data set [3] is NCI-H460/R resistant human non-small cell lung carcinoma cell line. The data set can be described thus: MTT test of cell viability, 72 h treatment. Format: cell-based. The note with it: for IC50: MTT, 72 h, MDR line; for Relative Resistance: ratio IC50 NCI-H460/R / IC50 NCI-H460. On the procedure: as §1
(§3) The absorbance of the samples was measured at 570 nm using a Multiskan Sky Microplate spectrophotometer.
as §2, with “h.” for “h. After the treatment period, 0.2 mg/ml MTT in the appropriate cell culture medium was added to each well.”

For data set [4], the system named is MRC-5 human lung fibroblast cell line. Kind of data set: MTT test of cell viability, 72 h treatment. Type of data set: cell-based. The protocol:
as §1, §3
as §2, with “h.” for “h. After the treatment period, 0.2 mg/ml MTT in the appropriate cell culture medium was added to each well.”

The test system of data set [5] is U87-TxR resistant human glioblastoma cell line. Kind of data set: MTT test of cell viability, 72 h treatment. Format: cell-based. The note with it: for IC50: MTT, 72 h, MDR line; for Relative Resistance: ratio IC50 U87-TxR / IC50 U87. The protocol: as §1, §3
as §2, with “h.” for “h. After the treatment period, 0.2 mg/ml MTT in the appropriate cell culture medium was added to each well.”

The nature of data set [6]: Zetasizer measurement of size, polydispersity and zeta potential. Type of data set: physicochemical. The note with it: 25° C., diluted 100 times with ultrapure water, mean of three. On the procedure: The Malvern Zetasizer Nano ZS (Malvern Instruments, United Kingdom) was used to analyze the physico-chemical stability characteristics of conjugates. The measurement range was from 0.6 nm up to […]. The mean size of conjugates, the polydispersity index (PDI) and zeta potential were measured. All measurements were taken at a temperature of 25° C. and each sample was diluted 100 times with ultrapure water. The measurements were repeated three times, and the results were presented as the mean value. PDI is a parameter used to define the size range of particles. The term “polydispersity” (or “dispersity” as recommended by IUPAC) describes the degree of non-uniformity of a size distribution of particles. Zeta potential represents the surface charge of nanoparticles and indicates their long-term stability.

The mark [7] stands for this setting: Homo sapiens, MRC5, 72 h, 2,000 cells per well (non-small cell carcinoma experiments).
Setting [8] is: Homo sapiens, MRC5, 72 h, 4,000 cells per well (glioblastoma experiments).

Usually IC50 stands for the point on the concentration scale where inhibition reaches its midpoint. Turning to `CC1(C)CCC[C@]2(C)[C@@H](CC[C@@](C)(O)/C=C/c3ccc(CNCCCCCCNC(=O)CCC(=O)O)cc3)[C@](C)(O)CC[C@@H]12` [LIG2, 4-((6-((4-((R,E)-3-hydroxy-5-((1R,2R,4aS,8aS)-2-hydroxy-2,5,5,8a-tetramethyldecahydronaphthalen-1-yl)-3-methylpent-1-en-1-yl)benzyl)amino)hexyl)amino)-4-oxobutanoic acid], the IC50 in data set [1] (Homo sapiens) is 345 µM; in data set [2] (Homo sapiens, NCI-H460), 99.6 µM; in data set [3] (Homo sapiens, NCI-H460), 110 µM; in data set [4] (setting [7]) it was 610 µM; in data set [4] (setting [8]) it was above 400 µM; in data set [5] (Homo sapiens, U87-TxR), 273 µM. Also, the “Selectivity Index” value in data set [1] is listed as above 1.2; in data set [2] it was 6.1. Further, the “Relative Resistance” value in data set [3] is given as 1.1; in data set [5], 0.8.

Regarding “N1-((2S,3S,4S,6R)-3-hydroxy-2-methyl-6-(((1S,3S)-3,5,12-trihydroxy-3-(2-hydroxyacetyl)-10-methoxy-6,11-dioxo-1,2,3,4,6,11-hexahydrotetracen-1-yl)oxy)tetrahydro-2H-pyran-4-yl)-N4-(6-((4-((R,E)-3-hydroxy-5-((1R,2R,4aS,8aS)-2-hydroxy-2,5,5,8a-tetramethyldecahydronaphthalen-1-yl)-3-methylpent-1-en-1-yl)benzyl)amino)hexyl) succinamide [CON2]”, the IC50 was 6.2 µM in data set [1]; 25.1 µM in data set [2]; 83.3 µM in data set [3]; 131 µM in data set [4] (2,000 cells per well (non-small cell carcinoma experiments)); above 400 µM in data set [4] (4,000 cells per well (glioblastoma experiments)); 26.2 µM in data set [5]. Also, the entries for the “Selectivity Index” value in data set [1] and in data set [2] were above 64.5 and 5.2, respectively. Moreover, the “Relative Resistance” value in data set [3] turned out to be 3.3; in data set [5], 4.2. For the same compound, the Z-Average in data set [6] was 180 ± 14.7 nm·days.

As to `CC1(C)CCC[C@]2(C)[C@@H](CC[C@@](C)(O)/C=C/c3ccc(CNCCCNC(=O)CCC(=O)O)cc3)[C@](C)(O)CC[C@@H]12` [LIG1, 4-((3-((4-((R,E)-3-hydroxy-5-((1R,2R,4aS,8aS)-2-hydroxy-2,5,5,8a-tetramethyldecahydronaphthalen-1-yl)-3-methylpent-1-en-1-yl)benzyl)amino)propyl)amino)-4-oxobutanoic acid], the half-maximal inhibitory concentration (IC50) in data set [1] (Homo sapiens) was 74.4 µM; in data set [2] (Homo sapiens, NCI-H460) it was 41.7 µM; in data set [3] (Homo sapiens, NCI-H460), 55.2 µM; in data set [4] (setting [7]) it was 393 µM; in data set [4] (setting [8]), 236 µM; in data set [5] (Homo sapiens, U87-TxR), 61.7 µM. The “Selectivity Index” value was found to be 3.2 in data set [1] and 9.4 in data set [2]. Further, the “Relative Resistance” value was 1.3 in data set [3] and 0.8 in data set [5].
